Assay results: patent US11439709B2, “Phospholipid ether analogs as cancer-targeting drug vehicles” (Cellectar Biosciences, Inc., priority 2014, dated 2022)

Tests used:
[1] = tested on: non-small cell lung carcinoma (NSCLC) tumors; assay: Clinical evaluation of 131I-CLR1404 in NSCLC patients (gamma imaging); type: in vivo, human; conditions: two patients with advanced NSCLC; injection of <1 mCi 131I-CLR1404
Protocol: To date, two patients with advanced NSCLC were imaged after an injection of <1 mCi of ^131I-CLR1404. Blood and urine samples were collected at predetermined times, and gamma imaging performed at several time points following administration.
Materials and Methods: Following intravenous injection of iodine-131 labeled CLR1404 (1 mCi/20 μg), patients with advanced NSCLC where scanned at 3, 6, 24, 48, 96 h and at 7 and 11 days on a GE Maxxus dual Head SPECT scanner. Blood and urine samples were collected for pharmacokinetic analysis as well as clinical hematologic, renal, and hepatic bioanalysis.

[2] = tested on: human RL-251 tumor xenograft; assay: Prolonged retention of 131I-CLR1404 by RL-251 tumor xenograft; type: in vivo, SCID mouse; conditions: See FIG. 3
Excerpt: FIG. 3. Prolonged retention of ^131ICLR1404 by human RL-251 tumor xenograft in SCIO mouse.

[3] = tested on: xenograft, orthotopic and transgenic cancer and cancer stem cell derived animal models; assay: Tumor selectivity of radioiodinated CLR1404 across animal tumor models (overall count); type: in vivo; conditions: transgenic and spontaneous rodent models
Protocol: All described animal studies were performed according to animal protocols approved by the Institutional Animal Care and Use Committee. Female athymic nude mice (Hsd:Athymic Nude-Foxnlnu or Crl:NU-Foxn1nu, Charles River Laboratories) about 4 to 5 weeks of age, 16 to 18 g (n=6), were used for human tumor xenograft studies. Mice were anesthetized with isoflurane and injected subcutaneously with viable tumor cells in 100 μl of Dulbecco's PBS (or, for glioma cells, […] of PBS) into the right flank. Inoculum sizes were 1×10^6 (for renal, ovarian, glioma, pancreatic, prostate, and NSCLC models), 2×10^6 (for colorectal and uterine models), or 3×10^6 (breast).
Radioiodinated ^124l-LR1404 was tested. in subcutaneous and orthotopic xenografts of 60 different spontaneous, transgenic, human, and rodent malignant cell lines and tumor types. […] Representative examples are of both human (FIG. 5A-5l) and rodent (FIG. 5J-M) tumors.

[4] = tested on: cancer cell lines (renal, ovarian, pancreatic, melanoma, and prostate); assay: Uptake of CLR1501 by cancer cell lines versus normal fibroblasts (confocal microscopy); type: cell-based; conditions: 24 hours; five cancer cell lines (renal, ovarian, pancreatic, melanoma, prostate) vs normal human skin fibroblasts; 5 or 7.5 μM
Excerpt: Human cancer cell lines were purchased from the American Type Culture Collection (ATCC). They included the following: Caki-2 (renal; clear cell carcinoma), HCT-116 (colorectal carcinoma); MES-SA/Dx5 (uterine sarcoma) [all maintained in McCoy's 5a medium supplemented with 10% fetal bovine serum (FBS)], Ovcar-3 (ovarian adenocarcinoma) [maintained in RPMI medium supplemented with 20% FBS], U87-MG (glioma) [maintained in minimum essential medium supplemented with 10% FBS], Mia Paca-2 (pancreatic carcinoma) (maintained in Dulbecco's modified Eagle's medium supplemented with 10% FBS), PC-3 (prostate carcinoma) (maintained in F-12K medium supplemented with 10% FBS), MDA-MB-231 (triple-negative mammary gland adenocarcinoma) (maintained in Leibovitz's medium supplemented with 10% FBS), and A549 (non-small cell lung carcinoma) (maintained in F-12 medium supplemented with 10% FBS). Normal human skin fibroblasts were purchased from ATCC and grown in Fibroblast Basal Medium PCS-201-030 supplemented with serum-free kit (Fibroblast Growth. Kit-Serum-Free PCS-201-040). […]
All cells were maintained at 37° C. in appropriate medium supplemented with 10% FBS and 5% CO2. […] The emission signal of CLRI 50 I was detected using Alexa Fluor 488 filters (ex/em 480/520 nm).

[5] = tested on: human glioblastoma stemlike cells and serum-cultured human glioblastoma cells; conditions: Weichert J. P., et al. (2014), FIG. 2; cited from earlier work
PC-3 cells = assay: Uptake of 125I-CLR1404 by PC-3 cells after lipid raft disruption with filipin III; type: cell-based; conditions: PC-3 cells pretreated with 2 μg/ml filipin III 15 min, then 125I-CLR1404 for 1 h; compared to untreated control cells
Protocol: PC-3 cells were pretreated with either 2 μg/ml filipin III or vehicle for 15 min, then washed and incubated with 2 μCi of ^125I-CLR1404 for 1 h. The media was removed and the cells were washed with phosphate buffered saline containing 0.1% bovine serum albumin, trypsinized, then split into two samples for determination of cell number by DNA content (A280 compared to a cell line specific standard curve) and counts per minute using a Gamma Counter (Perkin Elmer).

C6 glioma = assay: Rat C6 glioma model, NM404 imaging and tissue distribution; type: in vivo; conditions: for Tumor to brain ratio: C6 glioma-bearing rats
Protocol: Materials and Methods: All animals were housed and handled in accordance with the University of Wisconsin Research Animal Resources Center guidelines. Rat C6 glioma cells were propagated in DMEM medium (Life Technologies, Gaithersburg, Md.) supplemented with 10% heat-inactivated FBS (Bio Whittaker, Walkersville, Md.), 100 U/ml penicillin G, […] streptomycin, and 0.01 M HEPES (Life Technologies, Gaithersburg, Md.). Intracranial tumor implantation was performed as described previously. Cohen J D, et al., Intracranial C6 glioma model in adult Wistar-Furth rats. J Neuro Oncol 1990 8(1):95-6. Briefly, 1×10^6 C6 cells were resuspended in […] 1.2% methylcellulose and injected into the frontal lobes of anesthetized female Wistar rats (Harlan, Indianapolis, Ind.). Sham-operated animals received intracranial injections of an equal volume of methylcellulose without tumor cells.
Imaging Studies: Ten days after implantation, the presence of intracranial tumors was confirmed with MM. Briefly, anesthetized rats (6) received 2 ml of Gadodiamide (Gd, Omniscan 287 mg/ml, Nycomed, Princeton, N.J.) intraperitoneally and imaged 10 min later using a 1.5 Tesla clinical MR system (GE Signa LX) and a GE phased array extremity coil. The Tl-weighted (TR=500 ms, TE=I6.5 ms) multislice sequences covering the entire brain of each rat were inspected to select tumor-bearing rats with varying tumor sizes, and sham-operated rats for NM404 injections.
NM404 [18-(4-iodophenyl)-octadecylphosphocholine] (100 mg) was radioiodinated with ^125l via isotope exchange with Na^125I in a melt of pivalic acid. Weichert, et al. Int J Appl Rad Isotopes 1986; 37:907-913. NM404 has the same chemical structure as CLR1404 except that it is radioiodinated with ^125l instead of ^124l or ^131l. Following HPLC purification NM404 was dissolved in an aqueous 2% Polysorbate 20 solution prior to tail vein injection (5: −20 μCi/200 g rat) into four tumor-bearing and three sham-operated rats. At 1 (n=1), 2 (n=1), and 4 (n=2) days after NM404 injection, animals were euthanized (CO2) and brains were excised and imaged on a modified Bioscan AR2000 radio-TLC scanner (1 mm increments at 2 min acquisition/lane and 1 mm high-resolution collimator). In addition, normal brain, blood, kidney, liver, spleen, thyroid, and tumor tissues were weighed, and radioactivity counted in a gamma counter. The tissue distribution of radioactivity was then correlated to brain histology.

C[N+](C)(C)CCOP(=O)([O-])OCCCCCCCCCCCCCCCCCCc1ccc(I)cc1 [CLR1404, 18-(4-iodophenyl)-octadecylphosphocholine]
tumor uptake and retention in the primary lung tumor [1]: significant tumor uptake and retention | time remaining in cancer cells [2]: up to 20 days | models showing tumor selectivity / selective and prolonged tumor retention [3]: 55/60

C[N+](C)(C)CCOP(=O)([O-])OCCCCCCCCCCCCCCCCCCc1ccc(C2=C3C=CC=[N+]3[B-](F)(F)n3cccc32)cc1 [CLR1501]
preferential uptake in cancer cell lines compared to normal fibroblasts [4]: five to nine | uptake compared to normal human astrocytes and fetal human neural stem cells [5]: enhanced uptake

C[N+](C)(C)CCOP(=O)([O-])OCCCCCCCCCCCCCCCCCCc1ccc(I)cc1 [NM404, 18-(4-iodophenyl)-octadecylphosphocholine]
less uptake after disruption of lipid rafts (PC-3 cells): ~40% | Tumor to brain ratio (C6 glioma; 48 h after tail vein injection): 12.2 | Tumor to brain ratio (C6 glioma; 96 h after tail vein injection): 6.7 | uptake and retention in gliomas (imaging) (C6 glioma; gliomas ranging from 3-5 mm in diameter): striking uptake and prolonged retention in all gliomas | Radioactivity in normal brain tissue (C6 glioma; sham operated control animals): minimal
